# Test system: 12 single or co-culture in vitro tissue models of primary cells
# Test: Culture/co-culture cell model panel, extracellular biomarkers (DiscoveRx); as to CCL2/MCP-1: reference of the scale not given here; as to CD141/Thrombomodulin: reference of the scale not given here; as to CD142/Tissue Factor: reference of the scale not given here; as to CD38: reference of the scale not given here; as to CD40: reference of the scale not given here; as to CD69: reference of the scale not given here; as to CXCL8/IL-8: reference of the scale not given here; as to CXCL9/MIG: reference of the scale not given here; as to IL-1alpha: reference of the scale not given here; as to M-CSF: reference of the scale not given here; as to PBMC Cytotoxicity: reference of the scale not given here; as to SRB: reference of the scale not given here; as to sPGE2: reference of the scale not given here; as to sTNF-alpha: reference of the scale not given here
# Type: cell-based, human
# [1] = HDF3CGF stimulated fibroblasts, 1.00E3 nM
# [2] = HDF3CGF stimulated fibroblasts, 1.00E4 nM
# [3] = HPNo Huvec+PBMC unstimulated, 1.00E0 nM
# [4] = HPNo Huvec+PBMC unstimulated, 1.00E1 nM
# [5] = HPNo Huvec+PBMC unstimulated, 1.00E2 nM
# [6] = HPNo Huvec+PBMC unstimulated, 1.00E3 nM
# [7] = HPNo Huvec+PBMC unstimulated, 1.00E4 nM
compound,measurement,setting,value
Cn1ncc2cc(-c3cnc(N)c(Cl)c3N3CCC4(CCNC4=O)CC3)ccc21 [CMPD 3],EGFR,[1],-0.071
same,M-CSF,[1],-0.083
same,MMP-1,[1],0.021
same,PAI-I,[1],-0.046
same,Proliferation_72hr,[1],-0.287
same,SRB,[1],-0.024
same,TIMP-1,[1],-0.058
same,TIMP-2,[1],0.170
same,CCL2/MCP-1,[2],-0.120
same,CD54/ICAM-1,[2],-0.048
same,CD106/VCAM-1,[2],0.030
same,CXCL8/IL-8,[2],-0.092
same,CXCL9/MIG,[2],-0.077
same,CXCL10/IP-10,[2],0.009
same,CXCL11/I-TAC,[2],-0.045
same,Collagen I,[2],0.097
same,Collagen III,[2],0.0018
same,EGFR,[2],0.023
same,M-CSF,[2],-0.150
same,MMP-1,[2],0.056
same,PAI-I,[2],-0.210
same,Proliferation_72hr,[2],-0.515
same,SRB,[2],-0.209
same,TIMP-1,[2],-0.045
same,TIMP-2,[2],0.276
same,CCL2/MCP-1,[3],0.009
same,CD38,[3],0.004
same,CD40,[3],-0.028
same,CD106/VCAM-1,[3],0.042
same,CD141/Thrombomodulin,[3],0.010
same,CD142/Tissue Factor,[3],0.089
same,CCL2/MCP-1,[4],0.017
same,CD38,[4],-0.049
same,CD40,[4],-0.059
same,CD106/VCAM-1,[4],0.134
same,CD141/Thrombomodulin,[4],-0.016
same,CD142/Tissue Factor,[4],0.039
same,CCL2/MCP-1,[5],0.001
same,CD38,[5],-0.011
same,CD40,[5],-0.067
same,CD106/VCAM-1,[5],0.206
same,CD141/Thrombomodulin,[5],0.008
same,CD142/Tissue Factor,[5],0.039
same,CCL2/MCP-1,[6],-0.049
same,CD38,[6],-0.041
same,CD40,[6],-0.024
same,CD106/VCAM-1,[6],0.098
same,CD141/Thrombomodulin,[6],0.007
same,CD142/Tissue Factor,[6],0.007
same,CCL2/MCP-1,[7],-0.004
same,CD38,[7],-0.070
same,CD40,[7],-0.022
same,CD106/VCAM-1,[7],0.069
same,CD141/Thrombomodulin,[7],0.032
same,CD142/Tissue Factor,[7],-0.024
same,CD69,"HPNo, 1.00E0 nM",-0.011
same,CXCL8/IL-8,"HPNo, 1.00E0 nM",0.034
same,CXCL9/MIG,"HPNo, 1.00E0 nM",0.060
same,M-CSF,"HPNo, 1.00E0 nM",0.037
same,SRB,"HPNo, 1.00E0 nM",-0.058
same,sPGE2,"HPNo, 1.00E0 nM",0.025
same,sTNF-alpha,"HPNo, 1.00E0 nM",0.138
same,CD69,"HPNo, 1.00E1 nM",-0.011
same,CXCL8/IL-8,"HPNo, 1.00E1 nM",0.00458
same,CXCL9/MIG,"HPNo, 1.00E1 nM",0.092
same,M-CSF,"HPNo, 1.00E1 nM",0.011
same,SRB,"HPNo, 1.00E1 nM",-0.00131
same,sPGE2,"HPNo, 1.00E1 nM",0.022
same,sTNF-alpha,"HPNo, 1.00E1 nM",0.068
same,CD69,"HPNo, 1.00E2 nM",0.017
same,CXCL8/IL-8,"HPNo, 1.00E2 nM",-0.00647
same,CXCL9/MIG,"HPNo, 1.00E2 nM",0.045
same,M-CSF,"HPNo, 1.00E2 nM",-0.043
same,SRB,"HPNo, 1.00E2 nM",0.006
same,sPGE2,"HPNo, 1.00E2 nM",0.139
same,sTNF-alpha,"HPNo, 1.00E2 nM",0.492
same,CD69,"HPNo, 1.00E3 nM",-0.017
same,CXCL8/IL-8,"HPNo, 1.00E3 nM",-0.012
same,CXCL9/MIG,"HPNo, 1.00E3 nM",0.014
same,M-CSF,"HPNo, 1.00E3 nM",-0.056
same,SRB,"HPNo, 1.00E3 nM",0.008
same,sPGE2,"HPNo, 1.00E3 nM",0.056
same,sTNF-alpha,"HPNo, 1.00E3 nM",-0.00633
same,CD69,"HPNo, 1.00E4 nM",0.004
same,CXCL8/IL-8,"HPNo, 1.00E4 nM",-0.002
same,CXCL9/MIG,"HPNo, 1.00E4 nM",-0.052
same,M-CSF,"HPNo, 1.00E4 nM",-0.079
same,SRB,"HPNo, 1.00E4 nM",-0.058
same,sPGE2,"HPNo, 1.00E4 nM",0.016
same,sTNF-alpha,"HPNo, 1.00E4 nM",0.025
same,CCL2/MCP-1,"LPS Huvec+PBMC, 1.00E0 nM",0.009
same,CD40,"LPS Huvec+PBMC, 1.00E0 nM",-0.011
same,CD69,"LPS Huvec+PBMC, 1.00E0 nM",0.028
same,CD106/VCAM-1,"LPS Huvec+PBMC, 1.00E0 nM",0.028
same,CD141/Thrombomodulin,"LPS Huvec+PBMC, 1.00E0 nM",0.019
same,CD142/Tissue Factor,"LPS Huvec+PBMC, 1.00E0 nM",0.057
same,CXCL8/IL-8,"LPS Huvec+PBMC, 1.00E0 nM",0.020
same,IL-1alpha,"LPS Huvec+PBMC, 1.00E0 nM",0.064
same,M-CSF,"LPS Huvec+PBMC, 1.00E0 nM",0.051
same,SRB,"LPS Huvec+PBMC, 1.00E0 nM",-0.018
same,sPGE2,"LPS Huvec+PBMC, 1.00E0 nM",0.033
same,sTNF-alpha,"LPS Huvec+PBMC, 1.00E0 nM",0.017
same,CCL2/MCP-1,"LPS Huvec+PBMC, 1.00E1 nM",-0.00212
same,CD40,"LPS Huvec+PBMC, 1.00E1 nM",-0.078
same,CD69,"LPS Huvec+PBMC, 1.00E1 nM",-0.00157
same,CD106/VCAM-1,"LPS Huvec+PBMC, 1.00E1 nM",0.056
same,CD141/Thrombomodulin,"LPS Huvec+PBMC, 1.00E1 nM",0.042
same,CD142/Tissue Factor,"LPS Huvec+PBMC, 1.00E1 nM",0.050
same,CXCL8/IL-8,"LPS Huvec+PBMC, 1.00E1 nM",-0.028
same,IL-1alpha,"LPS Huvec+PBMC, 1.00E1 nM",-0.012
same,M-CSF,"LPS Huvec+PBMC, 1.00E1 nM",-0.018
same,SRB,"LPS Huvec+PBMC, 1.00E1 nM",-0.053
same,sPGE2,"LPS Huvec+PBMC, 1.00E1 nM",0.128
same,sTNF-alpha,"LPS Huvec+PBMC, 1.00E1 nM",0.024
same,CCL2/MCP-1,"LPS Huvec+PBMC, 1.00E2 nM",-0.069
same,CD40,"LPS Huvec+PBMC, 1.00E2 nM",-0.092
same,CD69,"LPS Huvec+PBMC, 1.00E2 nM",0.048
same,CD106/VCAM-1,"LPS Huvec+PBMC, 1.00E2 nM",0.047
same,CD141/Thrombomodulin,"LPS Huvec+PBMC, 1.00E2 nM",0.046
same,CD142/Tissue Factor,"LPS Huvec+PBMC, 1.00E2 nM",0.071
same,CXCL8/IL-8,"LPS Huvec+PBMC, 1.00E2 nM",-0.091
same,IL-1alpha,"LPS Huvec+PBMC, 1.00E2 nM",-0.007
same,M-CSF,"LPS Huvec+PBMC, 1.00E2 nM",-0.020
same,SRB,"LPS Huvec+PBMC, 1.00E2 nM",-0.076
same,sPGE2,"LPS Huvec+PBMC, 1.00E2 nM",0.096
same,sTNF-alpha,"LPS Huvec+PBMC, 1.00E2 nM",0.028
same,CCL2/MCP-1,"LPS Huvec+PBMC, 1.00E3 nM",-0.112
same,CD40,"LPS Huvec+PBMC, 1.00E3 nM",-0.089
same,CD69,"LPS Huvec+PBMC, 1.00E3 nM",0.015
same,CD106/VCAM-1,"LPS Huvec+PBMC, 1.00E3 nM",0.022
same,CD141/Thrombomodulin,"LPS Huvec+PBMC, 1.00E3 nM",0.052
same,CD142/Tissue Factor,"LPS Huvec+PBMC, 1.00E3 nM",0.071
same,CXCL8/IL-8,"LPS Huvec+PBMC, 1.00E3 nM",-0.169
same,IL-1alpha,"LPS Huvec+PBMC, 1.00E3 nM",-0.064
same,M-CSF,"LPS Huvec+PBMC, 1.00E3 nM",-0.008
same,SRB,"LPS Huvec+PBMC, 1.00E3 nM",-0.082
same,sPGE2,"LPS Huvec+PBMC, 1.00E3 nM",0.040
same,sTNF-alpha,"LPS Huvec+PBMC, 1.00E3 nM",-0.030
same,CCL2/MCP-1,"LPS Huvec+PBMC, 1.00E4 nM",-0.187
same,CD40,"LPS Huvec+PBMC, 1.00E4 nM",-0.133
same,CD69,"LPS Huvec+PBMC, 1.00E4 nM",-0.043
same,CD106/VCAM-1,"LPS Huvec+PBMC, 1.00E4 nM",0.00362
same,CD141/Thrombomodulin,"LPS Huvec+PBMC, 1.00E4 nM",0.038
same,CD142/Tissue Factor,"LPS Huvec+PBMC, 1.00E4 nM",0.121
same,CXCL8/IL-8,"LPS Huvec+PBMC, 1.00E4 nM",-0.222
same,IL-1alpha,"LPS Huvec+PBMC, 1.00E4 nM",-0.226
same,M-CSF,"LPS Huvec+PBMC, 1.00E4 nM",-0.022
same,SRB,"LPS Huvec+PBMC, 1.00E4 nM",-0.142
same,sPGE2,"LPS Huvec+PBMC, 1.00E4 nM",0.008
same,sTNF-alpha,"LPS Huvec+PBMC, 1.00E4 nM",-0.328
same,CCL2/MCP-1,"SAg, 1.00E0 nM",0.030
same,CD38,"SAg, 1.00E0 nM",0.023
same,CD40,"SAg, 1.00E0 nM",-0.041
same,CD69,"SAg, 1.00E0 nM",0.00162
same,CXCL8/IL-8,"SAg, 1.00E0 nM",0.064
same,CXCL9/MIG,"SAg, 1.00E0 nM",0.013
same,PBMC Cytotoxicity,"SAg, 1.00E0 nM",0.039
same,Proliferation,"SAg, 1.00E0 nM",0.019
same,SRB,"SAg, 1.00E0 nM",-0.013
same,CCL2/MCP-1,"SAg, 1.00E1 nM",-0.016
same,CD38,"SAg, 1.00E1 nM",-0.043
same,CD40,"SAg, 1.00E1 nM",-0.128
same,CD69,"SAg, 1.00E1 nM",0.037
same,CXCL8/IL-8,"SAg, 1.00E1 nM",-0.047
same,CXCL9/MIG,"SAg, 1.00E1 nM",-0.015
same,PBMC Cytotoxicity,"SAg, 1.00E1 nM",0.014
same,Proliferation,"SAg, 1.00E1 nM",0.030
same,SRB,"SAg, 1.00E1 nM",-0.033
same,CCL2/MCP-1,"SAg, 1.00E2 nM",-0.038
same,CD38,"SAg, 1.00E2 nM",-0.050
same,CD40,"SAg, 1.00E2 nM",-0.143
same,CD69,"SAg, 1.00E2 nM",0.053
same,CXCL8/IL-8,"SAg, 1.00E2 nM",-0.167
same,CXCL9/MIG,"SAg, 1.00E2 nM",-0.040
same,PBMC Cytotoxicity,"SAg, 1.00E2 nM",0.014
same,Proliferation,"SAg, 1.00E2 nM",0.018
same,SRB,"SAg, 1.00E2 nM",-0.052
same,CCL2/MCP-1,"SAg, 1.00E3 nM",-0.092
same,CD38,"SAg, 1.00E3 nM",-0.050
same,CD40,"SAg, 1.00E3 nM",-0.108
same,CD69,"SAg, 1.00E3 nM",0.059
same,CXCL8/IL-8,"SAg, 1.00E3 nM",-0.271
same,CXCL9/MIG,"SAg, 1.00E3 nM",-0.072
same,PBMC Cytotoxicity,"SAg, 1.00E3 nM",-0.014
same,Proliferation,"SAg, 1.00E3 nM",0.007
same,SRB,"SAg, 1.00E3 nM",-0.055
same,CCL2/MCP-1,"SAg, 1.00E4 nM",-0.171
same,CD38,"SAg, 1.00E4 nM",-0.109
same,CD40,"SAg, 1.00E4 nM",-0.222
same,CD69,"SAg, 1.00E4 nM",-0.076
same,CXCL8/IL-8,"SAg, 1.00E4 nM",-0.221
same,CXCL9/MIG,"SAg, 1.00E4 nM",-0.086
same,PBMC Cytotoxicity,"SAg, 1.00E4 nM",-0.027
same,Proliferation,"SAg, 1.00E4 nM",-0.217
same,SRB,"SAg, 1.00E4 nM",-0.150

# Source: publication PMC5224920, “Assessing the mechanism and therapeutic potential of modulators of the human Mediator complex-associated protein kinases” (eLife, 2016)
